What is called Kd is the free concentration of one partner at which half of the binding sites on the other are occupied at equilibrium, for simple one-to-one binding.

Experiment [1] deals with T1, RPE65 (Bos taurus, UniProt Q28175).
T1 construct: Frozen bovine eyecups devoid of retinas were purchased from W. L. Lawson Co; tissue W. L. Lawson Co; host or cells: bovine eyecups (retinal pigment epithelium)
Kind of experiment: Fluorescence binding assay of retinoids and analogs to purified RPE65. Also noted: species or system bovine. The note with it: antagonist of RPE65; read-out: KD. On the procedure: Purification of mRPE65, sRPE65 and rHRPE65: Purification was performed as described before (Ma et al., 2001). The purities of these proteins were verified by silver staining or Coomassie staining and Western blot (1:4000 primary antibody-1 h at room temperature and 1:4000 secondary antibody-0.5 h at room temperature).
(§1) Fluorescence binding assays: RPE65 in PBS, 1% CHAPS, pH 7.4 was used in the fluorometric titration studies. Protein concentrations were measured by a modified Lowry method (Lowry et al., 1951). All titrations were performed at 25° C. The samples in PBS buffer were excited at 280 nm and the fluorescence was scanned from 300 to 500 nm. Fluorescence measurements, using 450 μL quartz cuvettes with a 0.5 cm path length, were made at 25° C. on a Jobin Yvon Instruments, Fluoromax 2 employing the right-angle detection method.
(§2) The fluorescence of the protein solution was measured after equilibrating it at 25° C. for 10 min. The sample was then titrated with a solution of retinoid dissolved in dimethyl sulfoxide. In each titration, to a 250 μL solution of the protein an equal amount of retinoid, typically 0.2 μL. was added and thoroughly mixed before allowing it to equilibrate for 10 min prior to recording the fluorescence intensity. […] The binding constant (KD) was calculated from the fluorescence intensity by using the following equation (Gollapalli et al., 2003).
where P0=Total protein concentration,
n=number of independent binding sites, R0=Total retixioid concentration at each addition, KD=dissociation constant, Fmax=Fluorescence intensity at saturation, and F0=Initial fluorescence intensity.

In experiment [2] the test system is A2E formation. Kind of experiment: In vitro A2E formation in the presence of aromatic amine. As to the method: 100 mg (355 μmoles) of all-trans-retinal was dissolved in 3 mL followed by the addition of 9.5 μL of glacial acetic acid 9.5 μL of ethanolamine (155 μmoles). This solution was aliquoted into 300 μL fractions. 3-aminoethylbenzoate (15.5 μmoles) was added to the samples at 0, 2, 3.75, 14, 16.25, 18.0833 19.917 23.75 and 48 hrs. […] The solutions were shaken at room temperature for 48 hrs. The solutions were then kept at −80° C. and 15 μL was diluted to 250 μL (methanol). The solutions (15 μL) were then analyzed on a reverse phase (C18-5 μm-4.6 mm×150 mm) column on a linear gradient 85%-96% methanol/water and UV detector at 430 nm to determine the amount of A2E formation. The percent A2E formation was compared to A2E formation at 48 h in the absence of aromatic amine.

Experiment [3] addresses mouse RPE65. The experiment can be described thus: Constants of affinity (Kds) for mouse RPE65. Format: binding. The note with it: read-out: Kd (constant of affinity) for mouse RPE65. As to the method: as §1, §2
The constants of affinity (Kds) of several compounds for mouse RPE65 were determined. […] Thus, the potency of binding is a function of the ester chain length, i.e., the longer the chain length, the stronger the affinity for RPE65 is and the stronger the antagonist is.

Experiment [4] relates to A2E accumulation. Kind of experiment: In vivo A2E accumulation in abcr knockout mice. The note with it: for A2E accumulation / iso-A2E accumulation / total (A2E + iso-A2E) accumulation: 50 mg/kg once or twice a week, 2 to 2½ months; for reduction of A2E accumulation / reduction of iso-A2E accumulation / reduction of total A2E accumulation: versus no drug. On the procedure:
Effects on accumulation of A2E in abcr knockout mice by farnesyl decyl ketone and N-palmityl farnesimide were investigated. Mice were injected with 50 mg/kg drug in 25 microliters of DMSO or with only DMSO for the control group once or twice a week. After 2 to 2½ months, the mice were sacrificed, and A2E and iso-A2E were harvested and quantitated from 4 eyes for each drug or control.

T1 sequence (Q28175 whole entry): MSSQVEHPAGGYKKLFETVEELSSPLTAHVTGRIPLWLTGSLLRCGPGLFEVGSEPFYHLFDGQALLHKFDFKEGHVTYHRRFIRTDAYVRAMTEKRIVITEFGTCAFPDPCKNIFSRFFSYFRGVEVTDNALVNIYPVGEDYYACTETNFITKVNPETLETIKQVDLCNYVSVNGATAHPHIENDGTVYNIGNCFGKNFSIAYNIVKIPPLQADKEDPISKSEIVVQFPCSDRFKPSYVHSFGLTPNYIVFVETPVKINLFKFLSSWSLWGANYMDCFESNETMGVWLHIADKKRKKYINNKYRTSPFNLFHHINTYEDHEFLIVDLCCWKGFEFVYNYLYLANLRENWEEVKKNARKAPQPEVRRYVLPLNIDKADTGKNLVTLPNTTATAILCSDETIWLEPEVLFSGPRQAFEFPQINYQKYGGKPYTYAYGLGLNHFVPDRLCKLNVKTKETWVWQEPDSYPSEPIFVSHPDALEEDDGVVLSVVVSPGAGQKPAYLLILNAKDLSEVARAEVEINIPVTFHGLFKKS

With `CCCCCCCCCCCCCCCC(=O)CC/C=C(\C)CC/C=C(\C)CCC=C(C)C`, in experiment [1], the Kd was found to be 96 nM.
For `CCCCCCCCCC(=O)CC/C=C(\C)CC/C=C(\C)CCC=C(C)C`, in experiment [1], the equilibrium dissociation constant (Kd) is 56 nM.
As for `CCCCCCCCCCCCCCCC(=O)NC/C=C(\C)CC/C=C(\C)CCC=C(C)C`, in experiment [1], the Kd turned out to be 56 nM.
As to `CCCCCCCCCC(=O)CC/C=C(C)/C=C/C=C(C)/C=C/C1=C(C)CCCC1(C)C`, the Kd in experiment [1] is 173 nM.
Still for that read-out and setting: then `CC(=O)CC/C=C(C)/C=C/C=C(C)/C=C/C1=C(C)CCCC1(C)C`, with 3790 nM.
For the molecule `CCOC(=O)c1cccc(N)c1` [3-aminoethylbenzoate, ethyl 3-aminobenzoate], the “A2E formation % formation (48 Hrs = 100)” value in experiment [2] (aromatic amine added at 0 hrs, read at 48 hrs) came out at 3.98%; in experiment [2] (aromatic amine added at 2 hrs, read at 48 hrs), 8.67%; in experiment [2] (aromatic amine added at 3.75 hrs, read at 48 hrs), 7.71%; in experiment [2] (aromatic amine added at 14 hrs, read at 48 hrs), 19.73%; in experiment [2] (aromatic amine added at 16.25 hrs, read at 48 hrs), 19.25%; in experiment [2] (aromatic amine added at 18.0833 hrs, read at 48 hrs), 23.70%. The “A2E formation % formation (48 Hrs = 100)” value in experiment [2] (aromatic amine added at 19.91667 hrs, read at 48 hrs) is reported as 27.65%; in experiment [2] (aromatic amine added at 23.75 hrs, read at 48 hrs) it was 22.44%; in experiment [2] (aromatic amine added at 48 hrs, reference = 100) it was 100.00%.
In the case of `CCCCCCCCCCCCCCCC(=O)NC/C=C(C)/C=C/C=C(C)/C=C/C1=C(C)CCCC1(C)C` [4e], the Kd in experiment [3] was determined as 40 nM.
Take `CCCCCCCCCCCCCCCC(=O)CC/C=C(C)/C=C/C=C(C)/C=C/C1=C(C)CCCC1(C)C` [4f]: the Kd in experiment [3] and in experiment [1] was 64 nM throughout.
For `CC1=C(/C=C/C(C)=C/C=C/C(C)=C/C(=O)N(C)C)C(C)(C)CCC1` [N,N-dimethyl retinimide], in experiment [1], the Kd was determined as 3580 nM.
With `CCCCCCCCCCCCCCCCNC(=O)C/C=C(\C)CC/C=C(\C)CCC=C(C)C` [N-palmityl farnesimide], in experiment [4], the A2E accumulation turned out to be 5.38 pmoles/eye, the iso-A2E accumulation is 1.70 pmoles/eye, the “total (A2E + iso-A2E) accumulation” value is on record as 7.09 pmoles/eye and the “reduction of A2E accumulation” value is listed as “over 50%”. In experiment [4], the “reduction of iso-A2E accumulation” value is given as “about 33%” and the “reduction of total A2E accumulation” value is given as “about 47%”.
Regarding `CCCCCCCCCCCCCCCCNC(=O)/C=C(C)/C=C/C=C(C)/C=C/C1=C(C)CCCC1(C)C` [N-palmityl retinimide], the Kd in experiment [1] came out at 40 nM.
The same measure, in the same setting: for `CC1=C(/C=C/C(C)=C/C=C/C(C)=C/C(=O)NC(C)(C)C)C(C)(C)CCC1` [N-tert-butyl retinimide] the value was 4320 nM.
On to `CCCCCCCCCCC(=O)CC=C(C)CCC=C(C)CCC=C(C)C` [farnesyl decyl ketone], for which, in experiment [4], the A2E accumulation turned out to be 2.00 pmoles/eye, the iso-A2E accumulation is reported as 0.66 pmoles/eye, the “total (A2E + iso-A2E) accumulation” value amounted to 2.66 pmoles/eye and the “reduction of A2E accumulation” value was “over 80%”. In experiment [4], the “reduction of iso-A2E accumulation” value is “about 74%” and the “reduction of total A2E accumulation” value is “about 80%”.
Turning to `CCCCCCCCCCCCCCCC(=O)OC/C=C(\C)CC/C=C(\C)CCC=C(C)C` [farnesyl palmitate], the Kd in experiment [1] turned out to be 63 nM.
On the same count and under the same terms, then `CCCCCCCCCCCCCCCCOC/C=C(\C)CC/C=C(\C)CCC=C(C)C` [farnesyl palmityl ether], with 60 nM.
The same measure, in the same setting: for `CCCCCCCCCCCCCCCC(=O)OC/C=C(\C)CCC=C(C)C` [geranyl palmitate] the value was 301 nM.
As for `CCCCCCCCCCCCCCCCOC/C=C(\C)CCC=C(C)C` [geranyl palmityl ether], the Kd in experiment [1] stood at 416 nM.
Still for that read-out and setting: then `CCCCCCCCCCCCCCCC(=O)OC/C=C(\C)CC/C=C(\C)CC/C=C(\C)CCC=C(C)C` [geranylgeranyl palmitate], with 213 nM; and `CCCCCCCCCCCCCCCCOC/C=C(\C)CC/C=C(\C)CC/C=C(\C)CCC=C(C)C` [geranylgeranyl palmityl ether], with 195 nM.
In the case of `CCCCCCOC/C=C(C)/C=C/C=C(C)/C=C/C1=C(C)CCCC1(C)C` [hexyl retinyl ether], in experiment [1], the Kd came out at 151 nM.
Regarding `COC/C=C(C)/C=C/C=C(C)/C=C/C1=C(C)CCCC1(C)C` [methyl retinyl ether], the Kd in experiment [1] came out at 24 nM.
Take `CC(=O)/C=C(C)/C=C/C=C(C)/C=C/C1=C(C)CCCC1(C)C` [methyl retinyl ketone]: the Kd in experiment [1] stood at 3790 nM.
Still for that read-out and setting: then `CCCCCCCCCCCCCCCCC(O)/C=C(C)/C=C/C=C(C)/C=C/C1=C(C)CCCC1(C)C` (stereo not shown) [palmityl retinyl alcohol], with 170 nM.
On to `CCCCCCCCCCCCCCCCOC/C=C(C)/C=C/C=C(C)/C=C/C1=C(C)CCCC1(C)C` [palmityl retinyl ether], for which the values for the Kd in experiment [3] and in experiment [1] were 21 nM and 25 nM, respectively.
`CCCCCCCCCCCCCCCCC(=O)/C=C(C)/C=C/C=C(C)/C=C/C1=C(C)CCCC1(C)C` [palmityl retinyl ketone]: the Kd in experiment [1] came to 64 nM.
The same measure, in the same setting: then `COCCOCCOC/C=C(C)/C=C/C=C(C)/C=C/C1=C(C)CCCC1(C)C` [retinyl [2-(2′-methoxy)ethoxy]ethyl ether], with 486 nM.
Consider `CC(=O)OC/C=C(C)/C=C/C=C(C)/C=C/C1=C(C)CCCC1(C)C` [retinyl acetate], for which the dissociation constant Kd in experiment [3] and in experiment [1] was 1300 nM in each case.
In the case of `CCCCCCCCCCCCCCCC(=O)OC/C=C(C)/C=C/C1=C(C)CCCC1(C)C` [β-ionoacetyl palmitate], in experiment [1], the Kd turned out to be 153 nM.
On the same count and under the same terms, then `CCCCCCCCCCCCCCCCOC/C=C(C)/C=C/C1=C(C)CCCC1(C)C` [β-ionoacetyl palmityl ether], with 156 nM.
For retinyl hexanoate, the Kd in experiment [3] and in experiment [1] was 235 nM throughout.

Source of the values: US20080176952A1, “Management of Ophthalmologic Disorders, Including Macular Degeneration” (priority 2004, published 2008).
